# Assay results published in US6348483B1, “Use of derivatives of methylene-bis-oxazolidine and compositions obtained thereby” (Air Liquide Sante (International), priority 1998, dated 2002).
# Tested on: Chlorella fusca (CF)
# Test: Algistatic finish (SM 023) of pure acrylate house paint
# Assay type: cell-based
# Settings: without and with stress due to leaching; active compound concentration of 0.2% by weight based on house paint and test substance
# Experimental: In separate batches, the test concentrations of the active compounds/products were incorporated into the house paint, and the fungicidal and/or algistatic finish was determined using the stated test methods.
# Incorporation and testing were carried out according to the methods SM 022 and SM 023 below.
# This laboratory method was employed for determining the resistance of house coatings to colonization by algae. For this method, house coatings on standardized paper are used as test substrate and Chlorella fusca is used as test alga. It is furthermore possible to use pure cultures of other algae species of practical relevance.
# The experiments were carried out in Petri dishes on agar nutrient media.
# 50 g of the material to be finished were, in separate batches, mixed with various concentrations of the algicide to be examined and homogenized for 3-5 min using a basket stirrer.
# Paper carrier materials having the dimensions 90×270 mm (Schleicher & Schüll No. 2589 B/X 24078) were coated with the test material. The paint and/or render samples were coated to a wet-layer thickness of 250 μm by knife coating. […] In the case of renders, the layer thickness depends, as in practice, on the particle size. The coated carrier materials, hereinbelow referred to as test bodies, were subsequently dried in a horizontal position for five days.
# […] The cross section of the container for the watering in the direction of flow was 1000±500 cm^2.
# From the pretreated test bodies, three sample bodies having a diameter of 5 cm were punched out and sterilized in a Co^60 source using at least 10 kGy.
# Aseptically, the samples were placed onto the algae nutrient media, and the centre of the sample was inoculated with 5 ml of each algae suspension.
# The mixture of the algae suspensions was spread on the surface using a Drigalski spatula or an offset sterile glass rod.
# During the growth phase at 22±2° C., the coated samples in the Petri dishes were irradiated with light of an intensity of about 1000 Lux (customary fluorescent tubes, type D 67 daylight). A cycle of in each case 12 hours of irradiation and 12 hours of storage in the dark was used.
# The colonization of the samples by algae was examined and evaluated after two weeks. Evaluation was carried out visually. The evaluation of the samples was based on the following evaluation scale:
# No growth of algae on the test bodies
# Formation of an inhibitory zone or growth of algae on the nutrient medium up to the edge of the test bodies
# Visible colonization of the test body by algae
smiles,measurement,value
"COC(=O)Nc1nc2ccccc2[nH]1 [carbendazim, Methyl 1H-benzimidazol-2-ylcarbamate]",Algicidal action (in words),no algicidal action
